Test results taken from US10933063B2 (priority 2017, dated 2021).

molecular target: BTK (Homo sapiens (Human), UniProt Q06187); assay: biochemical
Sequence (Q06187 whole entry, looked up, species assumed): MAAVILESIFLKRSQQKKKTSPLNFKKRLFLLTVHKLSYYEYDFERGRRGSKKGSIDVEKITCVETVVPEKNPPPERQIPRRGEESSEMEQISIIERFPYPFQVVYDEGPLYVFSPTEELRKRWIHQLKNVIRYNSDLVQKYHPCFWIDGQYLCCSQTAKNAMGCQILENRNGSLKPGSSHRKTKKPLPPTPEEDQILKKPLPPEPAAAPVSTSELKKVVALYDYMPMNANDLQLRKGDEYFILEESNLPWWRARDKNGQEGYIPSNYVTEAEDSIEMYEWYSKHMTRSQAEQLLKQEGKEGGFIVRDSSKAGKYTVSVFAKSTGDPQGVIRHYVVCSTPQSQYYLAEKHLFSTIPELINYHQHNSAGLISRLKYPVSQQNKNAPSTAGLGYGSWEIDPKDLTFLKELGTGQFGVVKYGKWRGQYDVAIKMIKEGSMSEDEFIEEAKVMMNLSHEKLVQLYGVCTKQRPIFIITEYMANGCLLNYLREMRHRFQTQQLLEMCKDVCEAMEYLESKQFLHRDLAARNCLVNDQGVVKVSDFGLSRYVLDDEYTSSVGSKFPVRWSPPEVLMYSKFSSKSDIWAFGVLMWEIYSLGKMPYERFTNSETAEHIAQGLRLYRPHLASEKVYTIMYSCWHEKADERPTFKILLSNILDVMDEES
Description: Btk kinase activity was determined using a homogenous time resolved fluorescence (HTRF) methodology. Measurements were performed in a reaction volume of 15 μL using 384-well assay plates. Kinase enzyme, inhibitor, ATP and 1 μM peptide substrate were incubated in a reaction buffer compose of Hepes50 mM (pH7.0), NaN3 0.02%, BSA 0.01%, Orthocanadate 0.1 mM. […] For each compound, enzyme activity as measured at various concentrations of compound, Negative control reactions were performed in the absence of inhibitor in two replicates and eight no enzyme controls were used to determine baseline fluorescence levels.

| Compound | IC50 [nM] |
| --- | --- |
| CC#CN1CCC[C@H]1c1nc(-c2ccc(C(=O)Nc3cc(C(F)(F)F)ccn3)cc2)c2c(CF)nccn12 [Example 209, (S)-4-(8-(fluoromethyl)-3-(1-(prop-1-yn-1-yl)pyrrolidin-2-yl)imidazo [1,5-a]pyrazin-1-yl)-N-(4-(trifluoromethyl)pyridin-2-yl)benzamide] | 100 to 1000 |
| C=CC(=O)N1CCC[C@H]1c1nc(-c2ccc(OCc3cccc(F)c3)cc2)c2cnccn12 [Example 135, (S)-1-(2-(1-(4-((3-fluorobenzyl)oxy)phenyl)imidazo[1,5-a]pyrazin-3-yl)pyrrolidin-1-yl)prop-2-en-1-one] | 10 to 100 |
| C=CC(=O)N1CCCC[C@H]1c1nc(-c2ccc(COc3cccc(F)c3F)cc2)c2cnccn12 [Example 158, (S)-1-(2-(1-(4-((2,3-difluorophenoxy)methyl)phenyl)imidazo[1,5-a]pyrazin-3-yl)piperidin-1-yl)prop-2-en-1-one] | 100 to 1000 |
| CC#CC(=O)N1CCCC[C@H]1c1nc(-c2cccc(OCc3cccc(C(F)(F)F)c3)c2)c2c(C)nccn12 [Example 163, (S)-1-(2-(8-methyl-1-(3-((3-(trifluoromethyl)benzyl)oxy)phenyl)imidazo[1,5-a]pyrazin-3-yl)piperidin-1-yl)but-2-yn-1-one] | 1000 to 10000 |
| C=CC(=O)N1CCC[C@H]1c1nc(-c2ccc(Oc3ccccc3)nc2)c2cnccn12 [Example 4, (S)-1-(2-(1-(6-Phenoxypyridin-3-yl)imidazo[1,5-a]pyrazin-3-yl)pyrrolidin-1-yl)prop-2-en-1-one] | 100 to 1000 |
| CC#CC(=O)N1CC[C@@H](c2nc(-c3ccc(Oc4cccc(OC)c4F)cc3)c3cncc(C)n23)C1 [Example 73, (R)-1-(3-(1-(4-(2-fluoro-3-methoxyphenoxy)phenyl)-5-methylimidazo[1,5-a]pyrazin-3-yl)pyrrolidin-1-yl)but-2-yn-1-one] | 10 to 100 |
| CC#CC(=O)N1CC[C@@H](c2nc(-c3ccc(C(=O)Nc4ccccn4)cc3)c3cncc(OCC)n23)C1 [Example 193, (R)-4-(3-(1-(but-2-ynoyl)pyrrolidin-3-yl)-5-ethoxyimidazo[1,5-a]pyrazin-1-yl)-N-(pyridin-2-yl)benzamide] | 100 to 1000 |
| CC#CC(=O)N1CCC[C@H]1c1nc(-c2ccc(COc3cccc(OC)c3F)cc2)c2cnccn12 [Example 160, (S)-1-(2-(1-(4-((2-fluoro-3-methoxyphenoxy)methyl)phenyl)imidazo[1,5-a]pyrazin-3-yl)pyrrolidin-1-yl)but-2-yn-1-one] | 1000 to 10000 |
| CC#CC(=O)N1CC[C@@H](c2nc(-c3ccc(C(=O)Nc4ccccn4)cc3)c3c(C)ncc(C)n23)C1 [Example 183, (R)-4-(3-(1-(but-2-ynoyl)pyrrolidin-3-yl)-5,8-dimethylimidazo[1,5-a]pyrazin-1-yl)-N-(pyridin-2-yl)benzamide] | 100 to 1000 |
| C=CC(=O)N1CCC[C@H]1c1nc(-c2ccc(COc3ccccc3F)cc2)c2cnccn12 [Example 125, (S)-(2-(1-(4-((2-fluorophenoxy)methyl)phenyl)imidazo[1,5-a]pyrazin-3-yl)pyrrolidin-1-yl)prop-2-en-1-one] | 10 to 100 |
| C=CC(=O)N1CCCC[C@H]1c1nc(-c2ccc(C(=O)Nc3cc(C(F)(F)F)ccn3)cc2)c2c(C(F)(F)F)nccn12 [Example 201, (S)-4-(3-(1-acryloylpiperidin-2-yl)-8-(trifluoromethyl)imidazo[1,5-a]pyrazin-1-yl)-N-(4-(trifluoromethyl)pyridin-2-yl)benzamide] | 1000 to 10000 |
| CC#CC(=O)N1CCCC[C@H]1c1nc(-c2ccc(C(=O)Nc3ccccn3)cc2)c2c(C)nccn12 [Example 171, (S)-4-(3-(1-(but-2-ynoyl)piperidin-2-yl)-8-methylimidazo[1,5-a]pyrazin-1-yl)-N-(pyridin-2-yl)benzamide] | 10 to 100 |
| C=CC(=O)N1CCCC[C@H]1c1nc(-c2ccc(Oc3cccc(Cl)c3F)cc2)c2c(C)nccn12 [Example 42, (S)-1-(2-(1-(4-(3-chloro-2-fluorophenoxy)phenyl)-8-methylimidazo[1,5-a]pyrazin-3-yl)piperidin-1-yl)prop-2-en-1-one] | 10 to 100 |
| CC#CC(=O)N1CC[C@@H](c2nc(-c3ccc(Oc4cccc(OC)c4F)cc3)c3c(COC(C)=O)nccn23)C1 [Example 118, (R)-(3-(1-(but-2-ynoyl)pyrrolidin-3-yl)-1-(4-(2-fluoro-3-methoxyphenoxy)phenyl)imidazo[1,5-a]pyrazin-8-yl)methyl acetate] | 100 to 1000 |
| COc1cccc(Oc2ccc(-c3nc([C@@H]4CCCN4C(=O)C(N)=O)n4ccncc34)cc2)c1F [Example 33] | 1000 to 10000 |
| CC#CC(=O)N1CCC[C@H]1c1nc(-c2ccc(C(=O)Nc3ccccn3)cc2)c2cncc(C)n12 [Example 173, (S)-4-(3-(1-(but-2-ynoyl)pyrrolidin-2-yl)-5-methylimidazo[1,5-a]pyrazin-1-yl)-N-(pyridin-2-yl)benzamide] | 1000 to 10000 |
| CC#CC(=O)N1CCCC[C@H]1c1nc(-c2ccc(COc3ccc(F)c(F)c3)cc2)c2c(C)nccn12 [Example 151, (S)-1-(2-(1-(4-((3,4-difluorophenoxy)methyl)phenyl)-8-methylimidazo[1,5-a]pyrazin-3-yl)piperidin-1-yl)but-2-yn-1-one] | 100 to 1000 |

| Compound | IC50 [nM] |
| --- | --- |
| CC#CC(=O)N1CCCC[C@H]1c1nc(-c2ccc(Oc3cccc(OC)c3F)cc2)c2c(C(=O)OC)nccn12 [Example 67, methyl (S)-3-(1-(but-2-ynoyl)piperidin-2-yl)-1-(4-(2-fluoro-3-methoxyphenoxy)phenyl)imidazo[1,5-a]pyrazine-8-carboxylate] | 1000 to 10000 |
| CC#CC(=O)N1CCC[C@@H](c2nc(-c3ccc(C(=O)Nc4ccccn4)cc3)c3cnccn23)C1 [Example 167, (R)-4-(3-(1-(but-2-ynoyl)piperidin-3-yl)imidazo [1,5-a]pyrazin-1-yl)-N-(pyridin-2-yl)benzamide] | 1000 to 10000 |
| CC#CC(=O)N1CCCC[C@H]1c1nc(-c2ccc(OCc3cccc(F)c3)cc2)c2cnccn12 [Example 153, (S)-1-(2-(1-(4-((3-fluorobenzyl)oxy)phenyl)imidazo[1,5-a]pyrazin-3-yl)piperidin-1-yl)but-2-yn-1-one] | 1000 to 10000 |
| CC#CC(=O)N1CCCC[C@H]1c1nc(-c2ccc(OCc3cccc(F)c3F)cc2)c2c(C)nccn12 [Example 155, (S)-1-(2-(1-(4-((2,3-difluorobenzyl)oxy)phenyl)-8-methylimidazo[1,5-a]pyrazin-3-yl)piperidin-1-yl)but-2-yn-1-one] | 100 to 1000 |
| C=CC(=O)N1CCCC[C@H]1c1nc(-c2ccc(C(=O)Nc3ccccn3)cc2)c2c(C)ncc(C)n12 [Example 188, (S)-4-(3-(1-acryloylpiperidin-2-yl)-5,8-dimethylimidazo [1,5-a]pyrazin-1-yl)-N-(pyridin-2-yl)benzamide] | 10 to 100 |
| CC#CC(=O)N1CCC[C@H]1c1nc(-c2ccc(OCc3c(F)cccc3F)cc2)c2cnccn12 [Example 137, (S)-1-(2-(1-(4-((2,6-difluorobenzyl)oxy)phenyl)imidazo[1,5-a]pyrazin-3-yl)pyrrolidin-1-yl)bul-2-yn-1-one] | 1000 to 10000 |
| C=CC(=O)N1CCC[C@H]1c1nc(-c2ccc(Oc3cccc(C)c3)cc2)c2cnccn12 [Example 10, (S)-1-(2-(1-(4-(m-tolyloxy)phenyl)imidazo[1,5-a]pyrazin-3-yl)pyrrolidin-1-yl)prop-2-en-1-one] | 10 to 100 |
| CC#CC(=O)N1CCCC[C@H]1c1nc(-c2ccc(Oc3cccc(OC)c3)cc2)c2cnccn12 [Example 59, (S)-1-(2-(1-(4-(3-methoxyphenoxy)phenyl)imidazo[1,5-a]pyrazin-3-yl)piperidin-1-yl)but-2-yn-1-one] | 100 to 1000 |
| C=CC(=O)N1CCCC[C@H]1c1nc(-c2ccc(Oc3cccc(OC)c3F)cc2)c2c(C)ncc(C)n12 [Example 80, (S)-1-(2-(1-(4-(2-fluoro-3-methoxyphenoxy)phenyl)-5,8-dimethylimidazo[1,5-a]pyrazin-3-yl)piperidin-1-yl)prop-2-en-1-one] | 10 to 100 |
| CC#CC(=O)N1CCC[C@H]1c1nc(-c2ccc(Oc3cccc(OC)c3F)cc2)c2c(C)nccn12 [Example 57, (S)-1-(2-(1-(4-(2-fluoro-3-methoxyphenoxy)phenyl)-8-methylimidazo[1,5-a]pyrazin-3-yl)pyrrolidin-1-yl)but-2-yn-1-one] | 10 to 100 |
| CC#CC(=O)N1CCCC[C@H]1c1nc(-c2ccc(Oc3cccc(OC)c3)cc2)c2c(C)nccn12 [Example 49, (S)-1-(2-(1-(4-(3-methoxyphenoxy)phenyl)-8-methylimidazo[1,5-a]pyrazin-3-yl)piperidin-1-yl)but-2-yn-1-one] | 10 to 100 |
| CC#CC(=O)N1CC[C@@H](c2nc(-c3ccc(Oc4cccc(OC)c4F)cc3)c3cncc(OCCN(C)C)n23)C1 [Example 90, (R)-1-(3-(5-(2-(dimethylamino)ethoxy)-1-(4-(2-fluoro-3-methoxyphenoxy)phenyl)imidazo[1,5-a]pyrazin-3-yl)pyrrolidin-1-yl)but-2-yn-1-one] | 10 to 100 |
| C=CC(=O)N1CCC[C@@H](c2nc(-c3ccc(Oc4cccc(OC)c4F)cc3)c3cncc(C)n23)C1 [Example 70, (R)-1-(3-(1-(4-(2-fluoro-3-methoxyphenoxy)phenyl)-5-methylimidazo[1,5-a]pyrazin-3-yl)piperidin-1-yl)prop-2-en-1-one] | 10 to 100 |
| CC#CC(=O)N1CC[C@@H](c2nc(-c3ccc(C(=O)Nc4cc(C(F)(F)F)ccn4)cc3)c3cnccn23)C1 [Example 211, (R)-4-(3-(1-(but-2-ynoyl)pyrrolidin-3-yl)imidazo[1,5-a]pyrazin-1-yl)-N-(4-(trifluoromethyl)pyridin-2-yl)benzamide] | 10 to 100 |
| C=CC(=O)N1CCC[C@H]1c1nc(-c2ccc(Oc3ccccc3OC)cc2)c2cnccn12 [Example 23, (S)-1-(2-(1-(4-(2-methoxyphenoxy)phenyl)imidazo[1,5-a]pyrazin-3-yl)pyrrolidin-1-yl)prop-2-en-1-one] | 10 to 100 |
| C=CC(=O)N1CC[C@@H](c2nc(-c3ccc(C(=O)Nc4cc(C(F)(F)F)ccn4)cc3)c3cnccn23)C1 [Example 195, (R)-4-(3-(1-acryloylpyrrolidin-3-yl)imidazo[1,5-a]pyrazin-1-yl)-N-(4-(trifluoromethyl)pyridin-2-yl)benzamide] | 10 to 100 |
